Tests used:
Sphaerotheca fuliginea = test: Sphaerotheca test (cucumbers)/preventive; details: preventive spray, 7 days after inoculation
Method: Sphaerotheca Test (Cucumbers)/Preventive
After the spray coating has dried on, the plants are inoculated with an aqueous spore suspension of Sphaerotheca fuliginea. The plants are then placed in a greenhouse at approximately 23° C. and a relative atmospheric humidity of approximately 70%.
The test is evaluated 7 days after the inoculation.

Venturia inaequalis = test: Venturia test (apples)/preventive; details: preventive spray, 10 days after inoculation
Method: Venturia Test (Apples)/Preventive
After the spray coating has dried on, the plants are inoculated with an aqueous conidia suspension of the causal agent of apple scab (Venturia inaequalis) and then remain for 1 day in an incubation cabinet at approximately 20° C. and a relative atmospheric humidity of 100%.
The plants are then placed in a greenhouse at approximately 21° C. and a relative atmospheric humidity of approximately 90%.
The test is evaluated 10 days after the inoculation.

Alternaria solani = test: Alternaria test (tomatoes)/preventive; details: preventive spray, 3 days after inoculation
Method: The application rate of QST30002 refers to the amount of dried Bacillus subtilis AQ30002 aka QST300202 (NRRL Accession No. B-50421.
After the spray coating has dried on, the plants are inoculated with an aqueous spore suspension of Alternaria solani. The plants are then placed in an incubation cabinet at approximately 20° C. and a relative atmospheric humidity of 100%.
The test is evaluated 3 days after the inoculation.

Botrytis cinerea = test: Botrytis test (beans)/preventive; details: Table E, 100 ppm a.i., preventive spray, lesion size 2 days after inoculation
Method: Botrytis Test (Beans)/Preventive
After the spray coating has dried on, 2 small pieces of agar covered with growth of Botrytis cinerea are placed on each leaf. The inoculated plants are placed in a darkened chamber at 20° C. and a relative atmospheric humidity of 100%.
2 days after the inoculation, the size of the lesions on the leaves is evaluated.

Phytophthora infestans = type: in vivo; details: Table A; 100 ppm a.i.; tomatoes, preventive spray; 3 days after inoculation

Question: Which results are given for O=C(NCCc1ncc(C(F)(F)F)cc1Cl)c1ccccc1C(F)(F)F [F70 fluopyram, fluopyram]?
Answer: Efficacy in % found (activity found) (Sphaerotheca fuliginea; Table C2, 4 ppm a.i.): 10%; Efficacy in % found (activity found) (Venturia inaequalis; Table B1, 4 ppm a.i.): 4%; Efficacy in % found (activity found) (Alternaria solani; Table D1, 4 ppm a.i.): 33%

Question: How did the “Efficacy in % found (activity found)” value (Sphaerotheca fuliginea; Table C2, 1 ppm a.i.) turn out when Cn1cc(C(=O)Nc2ccccc2-c2cc(F)c(F)c(F)c2)c(C(F)F)n1 [F72 fluxapyroxad, fluxapyroxad] was run?
Answer: 29%

Question: What about the “Efficacy in % found (activity found)” value (Venturia inaequalis; Table B1, 0.5 ppm a.i.) of the same compound?
Answer: 43%

Question: And the “Efficacy in % found (activity found)” value (Alternaria solani; Table D1, 1 ppm a.i.)?
Answer: 47%

Question: With CC(C)Oc1cccc(NC(=O)c2ccccc2C(F)(F)F)c1 [F71 flutolanil, flutolanil] as the compound, how does the “Efficacy in % found (activity found)” value (Sphaerotheca fuliginea; Table C1, 100 ppm a.i.) read?
Answer: 0%

Question: What about the “Efficacy in % found (activity found)” value (Venturia inaequalis; Table B2, 100 ppm a.i.) of the same compound?
Answer: 4%

Question: What about the “Efficacy in % found (activity found)” value (Botrytis cinerea) of the same compound?
Answer: 0%

Question: And the “Efficacy in % found (activity found)” value (Alternaria solani; Table D2, 50 ppm a.i.)?
Answer: 43%

Question: What about the “Efficacy in % found (activity found)” value (Phytophthora infestans) of the same compound?
Answer: 33%

Question: With Cc1nn(C)c(F)c1C(=O)Nc1ccccc1C(C)CC(C)C (stereo not shown) [F84 penflufen, penflufen] as the compound, how does the “Efficacy in % found (activity found)” value (Sphaerotheca fuliginea; Table C2, 2 ppm a.i.) read?
Answer: 0%

Question: And the “Efficacy in % found (activity found)” value (Venturia inaequalis; Table B1, 2 ppm a.i.)?
Answer: 0%
